Experimental findings from patent US8778935B2 (Centro Nacional de Investigaciones Oncologicas (CNIO), priority 2009, dated 2014) are described below.

Like-named read-outs stand apart in the source and are kept apart here.

The term IC50 denotes the point on the concentration scale where inhibition reaches its midpoint.

The experiment addresses T1, PI3K (p110α/p85α) (Homo sapiens, UniProt P42336).
T1 construct: purchased Carna Biosciences 07CBS-0402A
The experiment can be described thus: PI3K Activity Assay (ADP Hunter Plus). The class given is biochemical. The method, then: The kinase activity was measured by using the commercial ADP Hunter™ Plus assay available from DiscoveRx (#33-016), which is a homogeneous assay to measure the accumulation of ADP, a universal product of kinase activity. […] Reaction was carried out for 1 hour at 25° C. Reagent A and B were sequentially added to the wells and plates were incubated for 30 min at 37° C. […] Values were normalized against the control activity included for each enzyme (i.e., 100% PI3 kinase activity, without compound). These values were plot against the inhibitor concentration and were fit to a sigmoid dose-response curve by using the Graphad software.

The mark [1] stands for this setting: quantitative results, read-out: PI3Kα IC50.
Where [2] appears, read: semi-quantitative results, read-out: PI3Kα IC50 (semi-quantitative class).
Where [3] appears, read: quantitative results of Table 4, read-out: PI3Kα IC50.

T1 sequence (P42336 whole entry): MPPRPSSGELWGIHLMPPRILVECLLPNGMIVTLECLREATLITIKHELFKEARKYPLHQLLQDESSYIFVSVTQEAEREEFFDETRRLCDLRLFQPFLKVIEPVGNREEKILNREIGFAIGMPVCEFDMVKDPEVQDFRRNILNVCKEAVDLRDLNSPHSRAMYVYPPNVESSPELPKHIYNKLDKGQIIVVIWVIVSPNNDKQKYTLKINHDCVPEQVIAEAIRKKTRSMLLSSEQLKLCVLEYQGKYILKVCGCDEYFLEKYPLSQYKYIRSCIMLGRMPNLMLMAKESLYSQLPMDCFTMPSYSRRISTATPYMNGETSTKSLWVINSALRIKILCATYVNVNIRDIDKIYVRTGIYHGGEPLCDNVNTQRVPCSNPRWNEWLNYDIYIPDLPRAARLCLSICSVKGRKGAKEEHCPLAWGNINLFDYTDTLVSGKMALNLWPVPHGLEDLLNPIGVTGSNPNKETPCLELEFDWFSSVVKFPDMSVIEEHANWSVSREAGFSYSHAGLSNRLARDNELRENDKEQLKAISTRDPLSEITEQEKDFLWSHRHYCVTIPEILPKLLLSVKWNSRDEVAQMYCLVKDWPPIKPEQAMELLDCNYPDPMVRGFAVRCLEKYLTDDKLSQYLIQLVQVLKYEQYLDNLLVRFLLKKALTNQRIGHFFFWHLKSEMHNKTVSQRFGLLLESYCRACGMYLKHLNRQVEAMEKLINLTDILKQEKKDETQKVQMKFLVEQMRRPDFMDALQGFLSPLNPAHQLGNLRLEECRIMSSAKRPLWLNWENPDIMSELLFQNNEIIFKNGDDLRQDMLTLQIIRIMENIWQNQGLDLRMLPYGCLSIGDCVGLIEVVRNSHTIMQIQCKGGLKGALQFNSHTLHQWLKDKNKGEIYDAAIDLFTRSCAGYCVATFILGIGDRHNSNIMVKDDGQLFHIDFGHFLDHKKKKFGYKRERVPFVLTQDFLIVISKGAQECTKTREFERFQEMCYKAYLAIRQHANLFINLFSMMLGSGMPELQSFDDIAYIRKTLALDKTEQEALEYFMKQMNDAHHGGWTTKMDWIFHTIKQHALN
T1 sequence (P27986 whole entry partner): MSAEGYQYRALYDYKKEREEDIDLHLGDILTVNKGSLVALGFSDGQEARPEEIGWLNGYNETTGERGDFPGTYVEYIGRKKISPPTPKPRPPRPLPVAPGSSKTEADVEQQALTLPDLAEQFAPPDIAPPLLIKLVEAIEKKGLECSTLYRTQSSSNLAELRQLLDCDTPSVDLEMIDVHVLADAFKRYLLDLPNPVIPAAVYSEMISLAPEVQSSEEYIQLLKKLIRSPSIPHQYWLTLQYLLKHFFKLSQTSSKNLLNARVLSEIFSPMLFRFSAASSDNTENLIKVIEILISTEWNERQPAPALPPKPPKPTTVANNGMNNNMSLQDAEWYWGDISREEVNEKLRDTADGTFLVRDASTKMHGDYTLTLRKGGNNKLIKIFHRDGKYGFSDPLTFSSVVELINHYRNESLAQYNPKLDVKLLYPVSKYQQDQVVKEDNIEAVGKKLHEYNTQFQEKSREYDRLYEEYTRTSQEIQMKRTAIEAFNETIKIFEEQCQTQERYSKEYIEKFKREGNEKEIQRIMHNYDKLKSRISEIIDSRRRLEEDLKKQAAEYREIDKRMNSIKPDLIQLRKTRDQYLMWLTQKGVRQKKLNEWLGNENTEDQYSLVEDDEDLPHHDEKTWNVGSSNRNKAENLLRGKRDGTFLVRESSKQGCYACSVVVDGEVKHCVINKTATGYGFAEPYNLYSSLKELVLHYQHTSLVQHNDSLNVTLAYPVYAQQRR

Regarding `O=C(O)c1cn2cc(-c3cccc(O)c3)nc(N3CCOCC3)c2n1` [2-02, 6-(3-hydroxyphenyl)-8-morpholinoimidazo[1,2-a]pyrazine-2-carboxylic acid], the IC50 under setting [1] stood at 19000 nM. Still for that read-out and setting: to `O=Cc1cn2cc(-c3cccc(O)c3)nc(N3CCOCC3)c2n1` [2-03, 6-(3-hydroxyphenyl)-8-morpholinoimidazo[1,2-a]pyrazine-2-carbaldehyde] belongs 10000 nM. On to `OCc1cn2cc(-c3cccc(O)c3)nc(N3CCOCC3)c2n1` [2-04, 3-(2-(hydroxymethyl)-8-morpholinoimidazo[1,2-a]pyrazin-6-yl)phenol], for which the concentration for half-maximal inhibition (IC50) under setting [1] amounted to 639 nM and the IC50 under setting [2] is 100 to 1000 nM.

In the case of `CC(C)(C)OC(=O)N1CCN(Cc2cn3cc(-c4cccc(O)c4)nc(N4CCOCC4)c3n2)CC1` [2-05, tert-butyl 4-((6-(3-hydroxyphenyl)-8-morpholinoimidazo[1,2-a]pyrazin-2-yl)methyl)-piperazine-1-carboxylate], the IC50 under setting [1] was found to be 476 nM. In the case of `CC(=O)N1CCN(Cc2cn3cc(-c4cccc(O)c4)nc(N4CCOCC4)c3n2)CC1` [2-06, 1-(4-((6-(3-hydroxyphenyl)-8-morpholinoimidazo[1,2-a]pyrazin-2-yl)methyl)-piperazin-1-yl)ethanone], the half-inhibitory concentration (IC50) runs as follows: under setting [1], 451 nM; under setting [2], 100 to 1000 nM. For the compound `CN1CCN(Cc2cn3cc(-c4cccc(O)c4)nc(N4CCOCC4)c3n2)CC1` [2-07, 3-(2a-((4-methylpiperazin-1-yl)methyl)-8-morpholinoimidazo[1,2-a]pyrazin-6-yl)phenol], under setting [1], the IC50 turned out to be 27000 nM. As to `O=C1CN(Cc2cn3cc(-c4cccc(O)c4)nc(N4CCOCC4)c3n2)CCN1` [2-08, 4-((6-(3-hydroxyphenyl)-8-morpholinoimidazo[1,2-a]pyrazin-2-yl)methyl)piperazin-2-one], the 50% inhibitory concentration (IC50) is 540 nM under setting [1] and 100 to 1000 nM under setting [2]. Regarding `Oc1cccc(-c2cn3cc(CN4CCOCC4)nc3c(N3CCOCC3)n2)c1` [2-09, 3-(8-morpholino-2-(morpholinomethyl)imidazo[1,2-a]pyrazin-6-yl)phenol], the half-inhibitory concentration (IC50) is 444 nM under setting [1] and 100 to 1000 nM under setting [2]. For `CS(=O)(=O)N1CCN(C(=O)c2cn3cc(-c4cccc(O)c4)nc(N4CCOCC4)c3n2)CC1` [2-11, (6-(3-hydroxyphenyl)-8-morpholinoimidazo[1,2-a]pyrazin-2-yl)(4-sulfonylmethyl-piperazin-1-yl)methanone], the IC50 under setting [1] turned out to be 44 nM. With `Oc1cccc(-c2cn3cc(C4CC4)nc3c(N3CCOCC3)n2)c1` [2-14, 3-(2-cyclopropyl-8-morpholinoimidazo[1,2-a]pyrazin-6-yl)phenol], the IC50 was 340 nM under setting [1] and 100 to 1000 nM under setting [2].

As for `CN1CCN(C(=O)c2cn3cc(-c4cccc5[nH]ncc45)nc(N4CCOCC4)c3n2)CC1` [2-15, (6-(1H-indazol-4-yl)-8-morpholinoimidazo[1,2-a]pyrazin-2-yl)(4-methylpiperazin-1-yl)methanone], the IC50 is, setting by setting: under setting [1], 741 nM; under setting [2], 100 to 1000 nM. In the case of `c1cc(-c2cn3cc(C4CC4)nc3c(N3CCOCC3)n2)c2cn[nH]c2c1` [2-19, 2-cyclopropyl-6-(1H-indazol-4-yl)-8-morpholinoimidazo[1,2-a]pyrazine], under setting [1], the concentration for half-maximal inhibition (IC50) turned out to be 438 nM. The same measure, in the same setting: the figure for `FC(F)(F)c1cn2cc(-c3cccc4[nH]ncc34)nc(N3CCOCC3)c2n1` [2-20, 2-(trifluoromethyl)-6-(1H-indazol-4-yl)-8-morpholinoimidazo[1,2-a]pyrazine] is 1800 nM.

For `N#Cc1cn2cc(-c3cccc4[nH]ncc34)nc(N3CCOCC3)c2n1` [2-22, 6-(1H-indazol-4-yl)-8-morpholinoimidazo[1,2-a]pyrazine-2-carbonitrile], the concentration for half-maximal inhibition (IC50) by setting is: under setting [1], 618 nM; under setting [2], 100 to 1000 nM.

`Cc1cn2cc(-c3cccc(O)c3)nc(N3CCOCC3)c2n1` [2-23, 3-(2-methyl-8-morpholinoimidazo[1,2-a]pyrazin-6-yl)phenol]: the IC50 is, setting by setting: under setting [1], 96 nM; under setting [2], < 100 nM. On to `Cc1cn2cc(-c3cccc4[nH]ncc34)nc(N3CCOCC3)c2n1` [2-24, 6-(1H-indazol-4-yl)-2-methyl-8-morpholinoimidazo[1,2-a]pyrazine], for which the IC50 under setting [1] was found to be 2600 nM and the half-inhibitory concentration (IC50) under setting [2] is > 1000 nM. On to `Cc1cn2cc(-c3cccnc3)nc(N3CCOCC3)c2n1` [2-26, 2-methyl-8-morpholino-6-(pyridin-3-yl)imidazo[1,2-a]pyrazine], for which the concentration for half-maximal inhibition (IC50) under setting [1] was 10000 nM.

As for `COc1cncc(-c2cn3cc(C)nc3c(N3CCOCC3)n2)c1` [2-27, 6-(5-methoxypyridin-3-yl)-2-methyl-8-morpholinoimidazo[1,2-a]pyrazine], the half-maximal inhibitory concentration (IC50) was 3900 nM under setting [1] and > 1000 nM under setting [2].

`Cc1cn2cc(-c3cccc(NS(C)(=O)=O)c3)nc(N3CCOCC3)c2n1` [2-28]: the 50% inhibitory concentration (IC50) under setting [1] worked out at 50000 nM. With `CNC(=O)Nc1ccc(-c2cn3cc(C)nc3c(N3CCOCC3)n2)cc1` [2-29, 1-methyl-3-(4-(2-methyl-8-morpholinoimidazo[1,2-a]pyrazin-6-yl)phenyl)urea], the concentration for half-maximal inhibition (IC50) under setting [1] came out at 3000 nM.

For `Cc1cn2cc(-c3cncc(O)c3)nc(N3CCOCC3)c2n1` [2-30, 5-(2-methyl-8-morpholinoimidazo[1,2-a]pyrazin-6-yl)pyridin-3-ol], the concentration for half-maximal inhibition (IC50) under setting [1] is 235 nM and the half-inhibitory concentration (IC50) under setting [2] was 100 to 1000 nM. Turning to `Cc1cn2cc(-c3ccncc3)nc(N3CCOCC3)c2n1` [2-31, 2-methyl-8-morpholino-6-(pyridin-4-yl)imidazo[1,2-a]pyrazine], under setting [1], the IC50 stood at 10000 nM.

In the case of `CN1CCN(c2cnc3c(N4CCOCC4)nc(-c4cccc(O)c4)cn23)CC1` [2-37, 3-(3-(4-methylpiperazin-1-yl)-8-morpholinoimidazo[1,2-a]pyrazin-6-yl)phenol], under setting [2], the IC50 lay in the range of 100 to 1000 nM. In the case of `CN1CCN(c2cnc3c(N4CCOCC4)nc(-c4cccc5[nH]ncc45)cn23)CC1` [2-38, 6-(1H-indazol-4-yl)-3-(4-methylpiperazin-1-yl)-8-morpholinoimidazo[1,2-a]-pyrazine], under setting [2], the IC50 is 100 to 1000 nM.

Consider `Oc1cccc(-c2cn3c(N4CCNCC4)cnc3c(N3CCOCC3)n2)c1` [2-40, 3-(8-morpholino-3-(piperazin-1-yl)imidazo[1,2-a]pyrazin-6-yl)phenol], for which, under setting [2], the IC50 was 100 to 1000 nM. Same read-out and setting: to `CS(=O)(=O)N1CCN(c2cnc3c(N4CCOCC4)nc(-c4cccc5[nH]ncc45)cn23)CC1` [2-41, 6-(1H-indazol-4-yl)-3-(4-sulfonylmethylpiperazin-1-yl)-8-morpholinoimidazo[1,2-a]pyrazine] belongs 100 to 1000 nM. For the compound `Cc1nc2c(N3CCOCC3)nc(-c3cccc4[nH]ncc34)cn2c1C1=CCNCC1` [2-44, 3-(1,2,3,6-tetrahydropyridin-4-yl)-6-(1H-indazol-4-yl)-2-methyl-8-morpholino-imidazo[1,2-a]pyrazine], the IC50 under setting [1] was 731 nM and the IC50 under setting [2] was in the range of 100 to 1000 nM. Consider `Cc1cn2c(Cl)c(-c3cccc(O)c3)nc(N3CCOCC3)c2n1` [2-49, 3-(5-chloro-2-methyl-8-morpholinoimidazo[1,2-a]pyrazin-6-yl)phenol], for which the 50% inhibitory concentration (IC50) under setting [2] was 100 to 1000 nM. With `CCOC(=O)c1cn2cc(-c3cccc4[nH]ncc34)nc(N3CCOCC3)c2n1` [2-52, ethyl 6-(1H-indazol-4-yl)-8-morpholinoimidazo[1,2-a]pyrazine-2-carboxylate], the 50% inhibitory concentration (IC50) under setting [1] was found to be 676 nM.

Consider `Cc1cn2c(Cl)c(-c3cccc4[nH]ncc34)nc(N3CCOCC3)c2n1` [2-54, 5-chloro-6-(1H-indazol-4-yl)-2-methyl-8-morpholinoimidazo[1,2-a]pyrazine], for which the half-inhibitory concentration (IC50) by setting is: under setting [1], 266 nM; under setting [2], 100 to 1000 nM. Regarding `Cc1cn2c(Br)c(-c3cccc4[nH]ncc34)nc(N3CCOCC3)c2n1` [2-55, 5-bromo-6-(1H-indazol-4-yl)-2-methyl-8-morpholinoimidazo[1,2-a]pyrazine], the half-inhibitory concentration (IC50) under setting [1] was 12000 nM. In the case of `Cc1cn2c(I)c(-c3cccnc3)nc(N3CCOCC3)c2n1` [2-56, 5-iodo-2-methyl-8-morpholino-6-(pyridin-3-yl)imidazo[1,2-a]pyrazine], under setting [1], the half-maximal inhibitory concentration (IC50) is 253 nM. Turning to `Cc1nc2c(N3CCOCC3)nc(-c3cccc4[nH]ncc34)cn2c1C1CCNCC1` [2-57, 6-(1H-indazol-4-yl)-2-methyl-8-morpholino-3-(piperidin-4-yl)imidazo[1,2-a]-pyrazine], the concentration for half-maximal inhibition (IC50) runs as follows: under setting [1], 144 nM; under setting [2], 100 to 1000 nM. Turning to `Cc1nc2c(N3CCOCC3)nc(-c3cccc4[nH]ncc34)cn2c1C1CCN(C)CC1` [2-58, 6-(1H-indazol-4-yl)-2-methyl-3-(1-methylpiperidin-4-yl)-8-morpholinoimidazo[1,2-a]pyrazine], the half-inhibitory concentration (IC50) under setting [2] was 100 to 1000 nM. As for `CS(=O)(=O)N1CCN(Cc2cn3c(Cl)c(-c4cccc5[nH]ncc45)nc(N4CCOCC4)c3n2)CC1` [2-60, 5-chloro-6-(1H-indazol-4-yl)-8-morpholino-2-((4-sulfonylmethylpiperazin-1-yl)-methyl)imidazo[1,2-a]pyrazine], the IC50 under setting [2] lay within 100 to 1000 nM.

As to `Cc1nc2c(N3CCOCC3)nc(-c3cccc4[nH]ncc34)cn2c1C(=O)NC1CCNCC1` [2-64, 6-(1H-indazol-4-yl)-2-methyl-8-morpholino-N-(piperidin-4-yl)imidazo[1,2-a]-pyrazine-3-carboxamide], the IC50 under setting [2] is > 1000 nM. Turning to `CS(=O)(=O)N1CCN(Cc2cn3cc(-c4ccc(C(N)=O)cc4)nc(N4CCOCC4)c3n2)CC1` [2-68], under setting [1], the IC50 is 11000 nM. Still for that read-out and setting: the figure for `CC(=O)Nc1ccc(-c2cn3cc(CN4CCN(S(C)(=O)=O)CC4)nc3c(N3CCOCC3)n2)cn1` [2-81] is 210 nM; for `CS(=O)(=O)N1CCN(Cc2cn3cc(-c4cnc(N)c(C(F)(F)F)c4)nc(N4CCOCC4)c3n2)CC1` [2-83] it is 210 nM. As to `CN(C)C(=O)c1cn2cc(-c3cccc4[nH]ncc34)nc(N3CCOCC3)c2n1` [2-86], under setting [3], the concentration for half-maximal inhibition (IC50) is 891 nM. On the same count and under the same terms, the figure for `O=C(c1cn2cc(-c3cccc4[nH]ncc34)nc(N3CCOCC3)c2n1)N1CCCC1` [2-87] is 355 nM.
